# Data taken from PMC6627486, “Ipomoeassin F Binds Sec61α to Inhibit Protein Translocation” (Journal of the American Chemical Society, 2019).
# What was measured:
# HCT116 = assay: cells; type: cell-based; conditions: Homo sapiens, HCT-116; HCT116, 72 h, Alamar Blue, assayed separately; read-out: Cytotoxicity (IC50)
# Protocol: AlamarBlue Cytotoxicity Assay
# MDA-MB-231, MCF-10A and HCT116. Viable cells were counted with a hemocytometer immediately before each experiment . Experiments were done in triplicate. First, 100 μL of MDA-MB-231 cells or MCF-10A cells at the density of 50,000 cells/mL was seeded in a 96-well plate (5,000 cells/well) and then incubated at 37 °C and 5% CO2 for 24 h. The compounds were dissolved in DMSO (dimethyl sulfoxide) to make drug stocks (10 mM). The stock solutions were diluted with the complete DMEM high glucose culture medium to make a series of gradient fresh working solutions right before each test. Subsequently, the cells were treated with 100 μL of the freshly made gradient working solution in a total volume of 200 μL/well for 72 h. After that, the media were discarded and 200 μL of the fresh complete medium containing 10% of AlamarBlue (resazurin) stock solution was added to each well. The plate was then incubated at 37 °C and 5% CO2 for another 3 h. Emission of each well at 620 nm was detected by a microplate reader (BioTek Synergy H1) at excitation 580 nm. For HCT116 WT and mutant lines, cells were seeded at 1000 cells/ well in complete McCoys medium. Compounds were diluted from a DMSO stock into culture medium as described above. Cells were treated for 96 h, then viability measured with AlamarBlue, detected using the conditions described but with a BMG Fluostar Optima Microplate Reader. The percentage of viability compared to the negative control (DMSO-treated cells) was determined. […]
# HCT116 and HEK293T. Viable cells were counted using an automated cell counter (BioRad TC20) before each experiment. […] Emission of each well at 620 nm was detected by a microplate reader (Perkin Elmer EnSpire) at excitation 580 nm. The percentage of viability compared to the negative control (DMSO -treated cells) was determined. […]
# Figure S1. […] (C) HCT116 colon carcinoma cells were treated with increasing concentrations of analogues 8, 14, 15, CT8, ipomoeassin F or carrier (0.1% DMSO) and cell viability was assessed at 72 h by the Alamar Blue assay (mean ± S.D., n = 4). […]
# [1] = test system: GLuc secretion in SH-SY5Y cells; assay: SH-SY5Y GLuc secretion assay; type: cell-based; conditions: Homo sapiens, read-out: GLuc secretion inhibition EC50
# MDA-MB-231 cells = assay: Live cell imaging with fluorescent probe 12; type: cell-based, human; conditions: 30 min preincubation, 100-fold excess competitor
# Protocol: MDA-MB-231 cells were seeded on fibronectin-coated coverslips at 70% confluency in a 48-well plate and cultured at 37 °C and 5% CO2. After 24 h, culture medium was replaced with fresh medium containing a 20 µM competitor or an equal volume of DMSO vehicle for 30 min at 37 °C and 5% CO2, followed by addition of 0.2 µM (final concentration) fluorescent probe 12. After 1 h incubation at 37 °C and 5% CO2, the coverslips were mounted onto a glass slide with a mounting medium with or without 0.5 µg/ml DAPI.
# The fluorescent images were acquired with a confocal microscope (Leica TCS SP5) using 405 nm excitation and 562 nm excitation. For the ER co-localization studies, 1 uM ER-Tracker™ Blue-White DPX was added to the medium after 1 h incubation with probe 12. After 5 min incubation, the coverslips were mounted onto a glass slide and the images were acquired as described above.
# CT7 photo-affinity labeling and click chemistry were done as previously described.14 Briefly, SRMs (sheep rough microsomes, isolated as described in reference15) containing 100 nM Sec61 were treated with 10 µM ipomoeassin F/mycolactone or 1% DMSO for 30 min at 0°C, followed by incubation with 100 nM CT7 for 10 min RT. Samples were then photolyzed for 10 min and crosslinked proteins were detected by click chemistry, SDS-PAGE, and in-gel fluorescent scanning (Typhoon Trio, GE Healthcare). […]
structure (smiles),measurement,setting,value
C/C=C(\C)C(=O)O[C@@H]1[C@@H](O)[C@@H]2O[C@H]3[C@H](O[C@@H](CCCCC)CCCCCCC(=O)CCC(=O)OC[C@@H](O2)[C@H]1OC(=O)/C=C/c1ccccc1)O[C@H](C)[C@H](OC(C)=O)[C@@H]3O [ipomoeassin F],IC50,HCT116,8 nM
same,EC50,[1],~120 nM
same,effect of competitor on fluorescence signal of 12,MDA-MB-231 cells,almost completely abolished
